The values that follow come from paper PMC4517520 (Drug Design, Development and Therapy, 2015).

Read-outs that look alike come from different tables or passages of the source.

The subject of one assay is EGFR. To be noted: read-out: Potency [IC50], cited from earlier work.
The subject of the next assay is HER2. To be noted: read-out: Potency [IC50]; PDB 3RCD; reference or ChEMBL geometric mean; cited from earlier work.
The subject of a further assay is A431 (wild-type) cells. The assay can be described thus: Cell proliferation assay. In kind it is cell-based. To be noted: Homo sapiens, A-431, 24 h, read-out: Cellular IC50 A431 (wild-type).
For assay [1], the target named is human EGFR cytoplasmic domain, dual T790M/L858R mutations (Homo sapiens, UniProt P00533, L858R/T790M). In kind it is biochemical. The note with it: in vitro.
Sequence of human EGFR cytoplasmic domain, dual T790M/L858R mutations (P00533 669-1210 T790M/L858R): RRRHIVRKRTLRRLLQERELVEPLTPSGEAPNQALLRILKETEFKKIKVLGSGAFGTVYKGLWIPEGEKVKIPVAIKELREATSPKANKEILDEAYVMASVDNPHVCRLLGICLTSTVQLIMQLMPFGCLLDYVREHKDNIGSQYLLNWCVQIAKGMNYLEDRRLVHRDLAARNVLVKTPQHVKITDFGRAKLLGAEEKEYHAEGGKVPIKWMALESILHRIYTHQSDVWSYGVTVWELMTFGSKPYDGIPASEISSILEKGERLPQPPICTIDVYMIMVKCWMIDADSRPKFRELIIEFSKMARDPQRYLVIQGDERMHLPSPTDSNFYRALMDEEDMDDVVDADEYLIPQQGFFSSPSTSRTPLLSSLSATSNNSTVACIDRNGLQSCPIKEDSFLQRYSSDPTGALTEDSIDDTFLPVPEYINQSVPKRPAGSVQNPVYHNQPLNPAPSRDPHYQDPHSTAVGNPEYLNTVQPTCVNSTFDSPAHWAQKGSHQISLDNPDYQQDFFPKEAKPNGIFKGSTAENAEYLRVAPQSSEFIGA
The next assay relates to MCF-7 cells. The assay can be described thus: Cell proliferation assay. The class given is cell-based. To be noted: Homo sapiens, MCF7, 24 h, read-out: Cellular IC50 MCF-7.
Assay [2] relates to H1975 (T790M/L858R) cells. Briefly: Cell proliferation assay. In kind it is cell-based. To be noted: Homo sapiens, NCI-H1975, 24 h, read-out: Cellular IC50 H1975 (T790M/L858R).
The test system of the next assay is HER4. The note with it: read-out: Potency [IC50]; PDB 3BBT; reference or ChEMBL geometric mean; cited from earlier work.

As for `CN(C)C/C=C/C(=O)Nc1cc2c(Nc3ccc(F)c(Cl)c3)ncnc2cc1O[C@H]1CCOC1` [0WM], in the assay on EGFR (PDB 4G5J, reference or ChEMBL geometric mean), the IC50 was 0.5 nM.

`COc1cc2ncnc(Nc3ccc(F)c(Cl)c3)c2cc1NC(=O)/C=C/CN1CCCCC1` [1C9]: the IC50 with EGFR (PDB 4I23, reference or ChEMBL geometric mean) is 8.12 nM.

On to `CC(C)(O)CC(=O)NCCn1ccc2ncnc(Nc3ccc(Oc4cccc(C(F)(F)F)c4)c(Cl)c3)c21` [03P], for which the IC50 in the assay with HER2 is 17 nM; in the assay with EGFR (PDB 3POZ, reference or ChEMBL geometric mean), […].

Turning to `CC(C)(O)CC(=O)NCCc1ccc2ncnc(Nc3ccc(Oc4cccc(C(F)(F)F)c4)c(Cl)c3)c2c1` [A-10, N-(2-(4-((3-Chloro-4-(3-(trifluoromethyl)phenoxy)phenyl)amino)quinazolin-6-yl)ethyl)-3-hydroxy-3-methylbutanamide], the IC50 was 41 nM in the assay with A431 (wild-type) cells, 94 nM in the assay on MCF-7 cells and 127 nM in assay [2]. For the same molecule, the “more potency against EGFR T790M than the two control molecules erlotinib and gefitinib” value in assay [1] is reported as “at least 30 fold”.

Take `CCN1CCN(Cc2ccc(-c3cc4c(N[C@H](C)c5ccccc5)ncnc4[nH]3)cc2)CC1` [AEE]: in the assay with EGFR (PDB 2J6M, reference or ChEMBL geometric mean), the IC50 was 10.9 nM.

For the molecule `C#Cc1cccc(Nc2ncnc3cc(OCCOC)c(OCCOC)cc23)c1` [Erlotinib, erlotinib], the IC50 in the assay with A431 (wild-type) cells was 62 nM; with MCF-7 cells, greater than 1000 nM.

Regarding `CS(=O)(=O)CCNCc1ccc(-c2ccc3ncnc(Nc4ccc(OCc5cccc(F)c5)c(Cl)c4)c3c2)o1` [FMM, lapatinib], the IC50 in the assay with EGFR was […]; in the assay on HER4, […].

Consider `COc1cc2ncnc(Nc3ccc(F)c(Cl)c3)c2cc1OCCCN1CCOCC1` [IRE], for which the IC50 with EGFR (PDB 2ITY, reference or ChEMBL geometric mean) is 53.5 nM.

For `CN(C)CCC(=O)Nc1cccc(-c2c(-c3ccccc3)oc3ncnc(N[C@H](CO)c4ccccc4)c23)c1` [KJ8], in the assay on EGFR (PDB 4JQ8, reference or ChEMBL geometric mean), the IC50 was 8 nM.

Take `OC[C@@H](Nc1ncnc2oc(-c3ccccc3)c(-c3ccccc3)c12)c1ccccc1` [KJQ]: the IC50 in the assay with EGFR (PDB 4JQ7, reference or ChEMBL geometric mean) was 393 nM.

In the case of `CN(C)CCCC(=O)Nc1cccc(-c2c(-c3ccccc3)oc3ncnc(N[C@H](CO)c4ccccc4)c23)c1` [KJV], the IC50 with EGFR (PDB 4JRV, reference or ChEMBL geometric mean) is 29 nM.
